Laboratory results taken from patent US9963433B2, “Anticancer drugs including the chemical structures of an androgen receptor ligand and a histone deacetylase inhibitor” (Wayne State University, priority 2016, dated 2018).

What was measured:
human recombinant HDAC6 = target: T1, human recombinant HDAC6 (Homo sapiens, UniProt Q9UBN7); experiment: HDAC6 fluorometric assay, recombinant enzyme; type: biochemical; details: for IC50: cell-free, FIG. 2C, read-out: IC50, inhibition of recombinant HDAC6
T1 construct: purchased Enzo Life Sciences BML-AK516
T1 sequence (Q9UBN7 1-1215): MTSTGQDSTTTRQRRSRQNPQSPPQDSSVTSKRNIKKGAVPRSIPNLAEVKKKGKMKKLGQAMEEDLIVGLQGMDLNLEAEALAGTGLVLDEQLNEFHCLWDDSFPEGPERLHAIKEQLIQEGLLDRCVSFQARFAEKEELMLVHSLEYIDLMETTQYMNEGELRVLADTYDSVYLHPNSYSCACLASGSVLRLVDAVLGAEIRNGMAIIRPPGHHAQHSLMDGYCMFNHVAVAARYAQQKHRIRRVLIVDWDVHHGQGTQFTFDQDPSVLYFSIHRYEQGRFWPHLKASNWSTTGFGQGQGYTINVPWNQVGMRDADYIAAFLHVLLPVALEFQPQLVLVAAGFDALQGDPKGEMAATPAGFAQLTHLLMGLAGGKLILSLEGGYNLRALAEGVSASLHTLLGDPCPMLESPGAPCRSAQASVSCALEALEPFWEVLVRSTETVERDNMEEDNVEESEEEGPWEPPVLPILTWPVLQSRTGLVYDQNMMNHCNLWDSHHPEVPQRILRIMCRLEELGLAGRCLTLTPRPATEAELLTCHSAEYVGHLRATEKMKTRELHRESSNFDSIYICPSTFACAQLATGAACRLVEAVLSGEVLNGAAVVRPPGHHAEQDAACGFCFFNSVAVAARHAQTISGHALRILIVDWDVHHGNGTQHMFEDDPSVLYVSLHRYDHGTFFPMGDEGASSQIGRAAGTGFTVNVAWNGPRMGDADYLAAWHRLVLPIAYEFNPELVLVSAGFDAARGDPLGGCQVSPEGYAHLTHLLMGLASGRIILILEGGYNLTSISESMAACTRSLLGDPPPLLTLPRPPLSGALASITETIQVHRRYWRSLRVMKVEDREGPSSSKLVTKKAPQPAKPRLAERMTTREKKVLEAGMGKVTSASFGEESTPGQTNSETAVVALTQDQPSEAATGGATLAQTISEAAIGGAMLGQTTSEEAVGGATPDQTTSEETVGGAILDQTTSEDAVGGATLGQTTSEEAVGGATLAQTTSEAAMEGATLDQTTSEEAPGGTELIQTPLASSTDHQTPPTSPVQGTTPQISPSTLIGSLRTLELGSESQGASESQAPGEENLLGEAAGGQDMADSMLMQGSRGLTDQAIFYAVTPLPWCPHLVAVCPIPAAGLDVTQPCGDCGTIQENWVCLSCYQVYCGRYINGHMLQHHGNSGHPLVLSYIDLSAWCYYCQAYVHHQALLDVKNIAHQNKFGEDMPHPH
Description: FIGS. 2A-2F show measurement of intrinsic and in situ HDACi activities. […] IC50 values were calculated from nonlinear regression plots using GraphPad Prism5 software. […] Recombinant HDAC6 was incubated with each drug at the indicated concentrations. IC50 values were calculated from nonlinear regression plots using GraphPad Prism5 software.
HDAC activity assay. In vitro HDAC inhibition was measured by using the HDAC fluorimetric assay/drug discovery Kit (Enzo Life Sciences, BML-AK500) and the HDAC6 fluorometric drug discovery kit (Enzo Life Sciences, BML-AK516) following the manufacturer's protocols and instructions. IC50 values were calculated from nonlinear […] plots using GraphPad Prism5 software.
HDAC1 and HDAC2 are enriched in nuclear extracts whereas HDAC6 is a cytosolic enzyme that is the principal modulator of the acetylation status of Hsp90. […] Again, TSA served as the positive control in FIG. 2D.

DLC1 mRNA in C4-2 cells = experiment: In situ HDACi activity: DLC1 mRNA in C4-2 cells; type: cell-based; details: 48 h, normalized to GAPDH mRNA, FIG. 2F
Description: FIGS. 2A-2F show measurement of intrinsic and in situ HDACi activities. […]. IC50 values were calculated from nonlinear regression plots using GraphPad Prism5 software. (2B) Enz, 1002 and 3-52 were tested against HeLa cell nuclear extract at 10 μM and 25 μM and TSA (1 μM) was used as positive control. […] Recombinant HDAC6 was incubated with each drug at the indicated concentrations. IC50 values were calculated from nonlinear regression plots using GraphPad Prism5 software. (2D) Enz, 1002 and 3-52 were tested against recombinant HDAC6 at 10 μM and 25 μM and TSA (1 μM) was used as positive control. […]
Cell Culture and Reagents. LNCaP and 22Rv1 cell lines were from American Type Culture Collection (Manassas, Va.). C4-2 cells were kindly provided by Dr. Edwin Sanchez (University of Toledo). LNCaP and C4-2 cells were routinely grown at 37° C. in 5% CO2 in RPMI 1640 medium supplemented with 10% FBS (Invitrogen); 100 units/ml penicillin, 100 μg/ml streptomycin, 2 mM L-glutamine mixture (Invitrogen); and sodium pyruvate (1 mM) (Invitrogen). 22Rv1 cells were grown in RPMI 1640 medium supplemented with 10% FBS (Invitrogen); 100 units/ml penicillin, 100 μg/ml streptomycin, 2 mM L-glutamine mixture (Invitrogen). Affinity-purified rabbit anti-human antibody to AR (sc-816) and mouse anti-human antibody to GAPDH (sc-47724) were purchased from Santa Cruz Biotechnology (Santa Cruz, Calif.). Affinity-purified rabbit anti-human antibody to Hsp90 (C45G5) #4877 and rabbit anti-human antibody to acetylated lysine #9441 were purchased from Cell Signaling Technology. R1881 was kindly provided by Dr. Stephan Patrick (Karmanos Cancer Institute). All experiments were conducted using phenol-red free growth media. For hormone depletion, cells were grown in phenol-red free RPMI 1640 medium supplemented with 10% charcoal stripped FBS (Sigma-Aldrich) which was heat inactivated at 56° C. for thirty minutes, and a mixture of 100 units/ml penicillin, 100 μg/ml streptomycin and 2 mM L-glutamine for 96 h.
RNA isolation, Reverse Transcription, and Real Time PCR. Total RNA was isolated from cells using the RNeasy Mini Kit (Qiagen). Reverse transcription PCR was then performed using 500 ng of total RNA with random primers and using the high-capacity complementary DNA Archive kit (Applied Biosystems). The complementary DNA from this reaction was measured using quantitative real time PCR using the StepONE Plus Real Time PCR system (Life Technologies Corporation, Carlsbad, Calif.). All reactions were performed in triplicate and normalized to glyceraldehyde-3-phosphate-dehydrogenase values in the same samples. All primers and Taqman probes were purchased from the applied Biosystems inventory (Invitrogen) (Patki et al., 2015).
. […]

p21 mRNA in LNCaP cells = experiment: p21 mRNA induction in LNCaP cells; details: 10 μM, 48 h, FIG. 5A

| SMILES | IC50 (human recombinant HDAC6) [µM] | DLC1 mRNA expression (DLC1 mRNA in C4-2 cells) | p21 mRNA expression (p21 mRNA in LNCaP cells) | inhibitory activity against HDAC6 (human recombinant HDAC6; tested at 10 μM and 25 μM, FIG. 2D) |
| --- | --- | --- | --- | --- |
| CC1(C)C(=O)N(c2ccc(C#N)c(C(F)(F)F)c2)C(=S)N1c1ccc(C(=O)NCCCCCCC(=O)NO)c(F)c1 [Compound 2-75, 4-(3-(4-cyano-3-(trifluoromethyl)phenyl)-5,5-dimethyl-4-oxo-2-thioxoimidazolidin-1-yl)-2-fluoro-N-(7-(hydroxyamino)-7-oxoheptyl)benzamide] | 2 | poor inducers of DLC1 mRNA compared with SAHA | induced p21 to a greater extent than SAHA | – |
| CC1(C)C(=O)N(c2ccc(C#N)c(C(F)(F)F)c2)C(=S)N1c1ccc(/C=C/C(=O)NO)c(F)c1 [Compound 1005, (E)-3-(4-(3-(4-cyano-3-(trifluoromethyl)phenyl)-5,5-dimethyl-4-oxo-2-thioxoimidazolidin-1-yl)-2-fluorophenyl)-N-hydroxyacrylamide] | 6.93 | poor inducers of DLC1 mRNA compared with SAHA | induced p21 to a greater extent than SAHA | – |
| CNC(=O)c1ccc(N2C(=S)N(c3ccc(C#N)c(C(F)(F)F)c3)C(=O)C2(C)C)cc1F [Enz, Enzalutamide, reference compound] | – | had no effect | had no effect | did not show significant inhibitory activity |
